Two compounds from PMC5112673, “A novel pyruvate kinase and its application in lactic acid production under oxygen deprivation in Corynebacterium glutamicum” (BMC Biotechnology, 2016) can be followed below.

Each structure is given as a SMILES string. Where two headings read alike, the source gives them in different places.

In the assay the test system is T1, Pyk2.
T1 construct: full length, pET-28a N-terminal His-tag (removable by thrombin; tagged and cut similarly active), E. coli BL21(DE3), subunit 67,572 Da, homohexamer 430,881 Da by gel filtration
As to the kind of experiment: coupled L-lactate dehydrogenase / NADH assay, […] nm, allosteric sigmoidal fit. The format is biochemical, Corynebacterium glutamicum. The conditions noted are these: 5 mM MnSO4, 100 mM KCl, 100 mM Tris-HCl pH 7.4, 25°C, no effector, read-out: S 0.5.

`Nc1ncnc2c1ncn2[C@@H]1O[C@H](COP(=O)(O)OP(=O)(O)O)[C@@H](O)[C@H]1O` [ADP]: the Km (5 mM PEP) came to 330 ± 30 µM. `C=C(OP(=O)(O)O)C(=O)O` [PEP]: the Km (2 mM ADP) was found to be 4580 ± 740 µM.
